Measured values published in US7413853B2, “Modulation of metabolism of steroids and xenobiotics” (The Salk Institute for Biological Studies, priority 2001, dated 2008).

How the values were obtained:
PXR [1] = molecular target: T1, PXR (Mus musculus, UniProt O54915); settings: tk-UGT1A6/DR-3-Luc, CV-1 cells
T1 sequence (O54915 1-431): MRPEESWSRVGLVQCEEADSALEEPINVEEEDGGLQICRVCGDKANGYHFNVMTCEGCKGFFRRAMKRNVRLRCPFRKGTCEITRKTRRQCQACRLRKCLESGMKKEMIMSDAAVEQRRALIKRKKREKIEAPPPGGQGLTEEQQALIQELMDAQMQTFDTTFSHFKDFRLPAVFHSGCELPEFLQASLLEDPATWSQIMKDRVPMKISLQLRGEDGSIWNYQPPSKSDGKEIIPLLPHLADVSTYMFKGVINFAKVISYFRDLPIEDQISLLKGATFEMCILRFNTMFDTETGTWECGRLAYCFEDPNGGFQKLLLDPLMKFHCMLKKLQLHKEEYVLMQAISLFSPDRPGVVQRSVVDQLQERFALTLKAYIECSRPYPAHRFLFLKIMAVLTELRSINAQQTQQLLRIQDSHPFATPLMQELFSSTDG
Description: (§1) The reporter gene comprises a thymadine kinase (TK) linked to UGT1A6/DR-3 linked to a luciferace (LUC).
(§2) In an exemplary assay, a luciferase reporter gene containing the UGT1A6/DR-3 upstream of a minimal thymidine kinase (tk) promoter was constructed and transfected into monkey kidney CV-1 cells together with expression vectors for SXR, PXR, or CAR.
(§3) In FIG. 2, the tk-UGT1A6/DR3-Luc construct comprises a UGT inverted or direct repeat and/or a nuclear receptor binding site such that activation of the response element results in transcription of UGT. […] The response element can also comprise an inverse repeat of a suitable half site separated by a 6 nucleotide spacer, or an inverse repeat of a variant thereof, separated by a 6 nucleotide spacer.

SXR [2] = molecular target: T2, SXR (Homo sapiens, UniProt O75469)
T2 sequence (O75469 1-434): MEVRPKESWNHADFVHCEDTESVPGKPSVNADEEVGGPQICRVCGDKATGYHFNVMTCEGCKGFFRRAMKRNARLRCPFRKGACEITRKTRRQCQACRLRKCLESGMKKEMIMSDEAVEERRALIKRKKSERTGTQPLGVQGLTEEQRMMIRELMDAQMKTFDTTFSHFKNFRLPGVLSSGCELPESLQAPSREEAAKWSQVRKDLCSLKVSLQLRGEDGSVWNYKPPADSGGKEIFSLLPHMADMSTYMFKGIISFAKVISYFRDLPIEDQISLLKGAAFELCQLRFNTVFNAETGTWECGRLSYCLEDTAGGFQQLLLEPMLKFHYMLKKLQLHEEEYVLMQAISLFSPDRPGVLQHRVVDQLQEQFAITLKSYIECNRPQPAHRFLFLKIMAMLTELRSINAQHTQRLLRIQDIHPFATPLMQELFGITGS
Description: as §1, §2, §3

[3] = test system: rat CYP3A23 gene cellular promoter
Method: (§4) The PCR-amplified sequences and target mutagenesis were confirmed by DNA sequencing.
(§5) All compounds were purchased from Sigma.
The above notion would predict: (1) The SXR/PXR response element is essential for the activation of CYP3A genes; and (2) The response elements of SXR and PXR are interchangeable. Therefore, mutagenesis analysis was performed on the promoter of the rat CYP3A23 gene to examine these predictions.

SXR [4] = test: Activation of SXR in transfection-based assays
Method: To characterize its response properties, a large variety of steroids, including intermediate and major products of known steroid biosynthetic pathways were tested.

[5] = test system: human CYP3A4 gene cellular promoter; settings: hepatocytes
Description: as §4, §5

CYP3A11 gene = settings: mouse, in vivo
Method: The animals were allowed free access to food and water at all times. […] When necessary, mice were treated with a single intraperitoneal injection of DEX (50 mg/kg), PCN (40 mg/kg), or CTZ (50 mg/kg).
To examine the drug response of the endogenous liver CYP3A11 gene, animals were treated with single dose of compounds 24 h before sacrifice, and the CYP3A11 gene expression was evaluated by Northern blot analysis on liver total RNA. […] To detect specific transcripts, [^32P]-cDNA probes labeled by Random Primer Labeling Kit (Boringher) were hybridized to the membranes. The probe used to detect transgene contains both the SXR cDNA and the SV40 sequences. […] The filters were subsequently stripped and rehybridized with a murine glyceraldehyde-3-phosphate dehydrogenase (GAPDH) cDNA probe for RNA loading normalization.
Tissues were harvested 24 h later and subjected to Northern blot analysis. Membranes were probed with CYP3A11 cDNA probe, and were subsequently stripped and re-probed with GAPDH and transgene specific probes.

PXR [6] = molecular target: T1, PXR; test: Activation of mouse receptor PXR by the panel of compounds

activation of the UGT reporter by SXR (SXR [2]) | Structure (SMILES) | PXR-mediated UGT activation (PXR [1]) | PXR and/or SXR-mediated activation of mutated CYP3A23 promoter [3] | inducibility of CYP3A23 promoter with DR-3 replaced by IR-6 [3] | induction of CYP3A23 cellular promoter reporter [3] | activation of SXR by compounds known to induce CYP3A4 (SXR [4]) | SXR activation of DR-3, DR-4 and DR-5 elements (SXR [4]; series of transfections) | activation of SXR (SXR [4]; transfection-based assays, steroids tested) | activation of CYP3A23 cellular promoter reporter [3] | activation of CYP3A4 cellular promoter reporter [5] | induction of liver CYP3A11 expression (CYP3A11 gene) | activation of PXR (PXR [6])
Significant activation | Clc1ccccc1C(c1ccccc1)(c1ccccc1)n1ccnc1 [CTZ, clotrimazole] | activation was seen | abolished | successfully rescue the inducibility | significant induction | – | – | – | – | – | – | –
– | CC(=O)[C@H]1[C@H](C#N)C[C@H]2[C@@H]3CC=C4C[C@@H](O)CC[C@]4(C)[C@H]3CC[C@@]21C [PCN, pregnenolone-16-carbonitrile] | activation was seen | abolished | successfully rescue the inducibility | remained unchanged | weak activator | among the best activators | activated | most potent and efficacious tested activators | can be activated | equally efficacious | preferentially activated
